Experimental data reported in patent US11628169B2, “Therapeutic drug for motor complications in Parkinson's disease” (Sumitomo Pharma Co., Ltd., priority 2020, dated 2023).
Where a name gives a salt, the structure may show the parent alone.

How the values were obtained:
Type in all cases: in vivo
PD-LID rat model [1] = assay: ON score and ON time without dyskinesia in PD-LID rat model
Procedure: To make a PD-LID rat model, a mixture of levodopa methyl ester hydrochloride (6 mg/kg; Sigma-Aldrich) dissolved in saline and benserazide hydrochloride (15 mg/kg; Sigma-Aldrich) (hereinafter, also referred to as “levodopa containing solution”) was intraperitoneally administered once daily to 6-OHDA-lesioned rats. The levodopa containing solution was repeatedly administered for 3 weeks or longer to observe and evaluate the behavior. The behavior was observed and evaluated in a transparent acrylic cage for 1 minute every 20 minutes after 20 minutes from the intraperitoneal administration of the levodopa containing solution, up until after 3 hours from administration. […] Individuals with a total AIMs score of less than 10 were excluded from the test as not manifesting a dyskinesia-like symptom. The behavior was observed and evaluated before the drug evaluation date. […] For an indicator of dyskinesia behavior, the sum of the Limb AIMs, Axial AIMs, and Orolingual AIMs at each evaluation point was used as the AIMs score. For the rotational behavior (ON score), Locomotive behavior at each evaluation point was used as an indicator. […] For ON time without dyskinesia, the period during which the AIMs score is 0 and Locomotive behavior is 1 or greater at each evaluation point was added. Duration of action of levodopa without a dyskinesia symptom (ON time without dyskinesia) refers to the aggregate time with no dyskinesia during the antiparkinsonian action effective time, i.e., “ON-time”, and defined as the time during which the dyskinesia symptom (AIMs) score is 0 and the rotational behavior (Locomotive behavior) score is 1 or greater at each evaluation point after levodopa administration. […] After 5 minutes, a levodopa containing solution was intraperitoneally administered, and the behavior was observed and evaluated. The results in the drawings are indicated in terms of mean value±standard error. […] For evaluation of a tape agent, the abdominal regions of the rats were shaved prior to the evaluation date. […] After 4 hours from application, a levodopa containing solution was intraperitoneally administered to observe and evaluation the behavior. The results in the drawings are indicated in terms of mean value±standard error. Individuals with 50% or more of the tape agent coming off during the test were excluded from analysis.

PD-LID rat model [2] = assay: Dyskinesia-like symptom (AIMs) score in PD-LID rat model; settings: for total dyskinesia-like symptom (AIMs) score in 3 hours: levodopa 5 min later, vs solvent group
Procedure: To make a PD-LID rat model, a mixture of levodopa methyl ester hydrochloride (6 mg/kg; Sigma-Aldrich) dissolved in saline and benserazide hydrochloride (15 mg/kg; Sigma-Aldrich) (hereinafter, also referred to as “levodopa containing solution”) was intraperitoneally administered once daily to 6-OHDA-lesioned rats. The levodopa containing solution was repeatedly administered for 3 weeks or longer to observe and evaluate the behavior. The behavior was observed and evaluated in a transparent acrylic cage for 1 minute every 20 minutes after 20 minutes from the intraperitoneal administration of the levodopa containing solution, up until after 3 hours from administration. […] The sum of the scores for Limb AIMs, Axial AIMs, and Orolingual AIMs in 3 hours was used as the total dyskinesia-like symptom (AIMs) score. Individuals with a total AIMs score of less than 10 were excluded from the test as not manifesting a dyskinesia-like symptom. The behavior was observed and evaluated before the drug evaluation date. The rats were assigned to each dosing group by using the 3 hour total dyskinesia-like symptom (AIMs) score, Locomotive behavior score, and rat body weight as indicators, which were used for evaluation of drugs. […]
After 4 hours from application, a levodopa containing solution was intraperitoneally administered to observe and evaluate the behavior. Individuals with 50% or more of the tape agent coming off during the test were excluded from analysis. […]
As in Example 2, a levodopa containing solution was repeated administered to 6-0HDA-lesioned rats for 3 weeks or longer to observe and evaluate the behavior. The behavior was observed and evaluated before the drug evaluation date. The rats were assigned to each dosing group by using the 3 hour dyskinesia-like symptom (AIMs) score, Locomotive behavior score, and rat body weight as indicators, which were used for evaluation of drugs. However, individuals with a total AIMs score of less than 10 were excluded from the test as lacking manifestation of a dyskinesia-like symptom. Individuals with a body weight deviating 10% or more from the mean body weight were also excluded from the test to minimize variation in the dosage for each individual. […]
After 4 hours, a levodopa containing solution was administered to observe and evaluate the behavior. […]
The prepared solution was used after injection into an ALZET® Osmotic Pump MODEL 2ML2 (4.53 μL/hour; DURECT) for releasing a drug solution at a stable rate for 2 weeks. […]
The behavior was observed and evaluated using the same method as Example 2. […] After 5 minutes, a levodopa containing solution was intraperitoneally administered, and the behavior was observed and evaluated. The results in the drawings are indicated in terms of mean value […] standard error. The test results were statistically analyzed by comparison with the solvent administration group by Steel test using the total dyskinesia-like symptom (AIMs) score in 3 hours and total dyskinesia-like symptom score in 100 to 180 minutes as parameters. * indicates p<0.05, meaning that there is a significant difference.
The behavior was observed and evaluated using the same method in Example 2. […] The test results were statistically analyzed by comparison with the solvent administration group by Steel test by using the total dyskinesia-like symptom (AIMs) score in 3 hours and total dyskinesia-like symptom score in 100 to 180 minutes as parameters.

[3] = system: rat Vogel conflict test model; assay: Anxiolytic action in rat Vogel conflict test model; settings: effect on PD-LID evaluated in 6-OHDA-lesioned rats
Procedure: The anxiolytic action was evaluated using a rat Vogel conflict test model, and the effect on PD-LID was evaluated in 6-0HDA-lesioned rats.

PD-LID rat model [4] = assay: Dyskinesia-like symptom (AIMs) score in PD-LID rat model
[5] = continuous subcutaneous infusion 1.25 mg/kg/hour, vs solvent
[6] = oral 6.7 mg/kg as free form (10 mg/kg as citrate)
[7] = oral 67 mg/kg as free form (100 mg/kg as citrate)
[8] = transdermal condition 1, 37 mg/kg as free form
[9] = transdermal condition 2 (stripping), 45 mg/kg as free form

O=C1[C@@H]2[C@H]3CC[C@H](C3)[C@@H]2C(=O)N1CCCCN1CCN(c2ncccn2)CC1 [tandospirone, (1R,2S,3R,4S)—N-[4-{4-(pyrimidine-2-yl)piperadine-1-yl}butyl]-2,3-bicyclo[2.2.1]heptanedicarboximide]
(iii) Duration of action of levodopa without dyskinesia symptom (ON time without dyskinesia) (PD-LID rat model [1]; oral 6.7 mg/kg as free form (10 mg/kg as citrate), vs solvent group): Ineffective
(iii) Duration of action of levodopa without dyskinesia symptom (ON time without dyskinesia) (PD-LID rat model [1]; oral 20 mg/kg as free form (30 mg/kg as citrate), vs solvent group): Ineffective
(iii) Duration of action of levodopa without dyskinesia symptom (ON time without dyskinesia) (PD-LID rat model [1]; transdermal condition 1 (no stripping), 37 mg/kg as free form, 180 min, prolongation vs placebo tape): 21.7 min
(iii) Duration of action of levodopa without dyskinesia symptom (ON time without dyskinesia) (PD-LID rat model [1]; transdermal condition 2 (stripping), 45 mg/kg as free form, 180 min, prolongation vs placebo tape): 77.8 min
total dyskinesia-like symptom score in 100 to 180 minutes (PD-LID rat model [2]; [5]): significant improvement
dyskinesia-like symptoms (total AIMs score in 3 hours) (PD-LID rat model [2]; continuous subcutaneous infusion 0.05, 0.25, 1.25 mg/kg/hour, levodopa 4 hours after pump implant, vs solvent): dose-dependently improved dyskinesia-like symptoms
anxiolytic action compared with effect on PD-LID [3]: exerted at the same dosage
dyskinesia-like symptoms (total AIMs score in 3 hours) (PD-LID rat model [4]; [5]): significant improvement
(i) Degree of improvement in indicator of dyskinesia symptom (total AIMs score in 3 hours, solvent minus tandospirone group) (PD-LID rat model [4]; [6]): Ineffective
(ii) Indicator of rebound symptom of dyskinesia (total dyskinesia-like symptom score in 100 to 180 minutes, solvent minus tandospirone group) (PD-LID rat model [4]; [6]): No effect
(i) Degree of improvement in indicator of dyskinesia symptom (total AIMs score in 3 hours, solvent minus tandospirone group) (PD-LID rat model [4]; oral 20 mg/kg as free form (30 mg/kg as citrate)): Ineffective
(ii) Indicator of rebound symptom of dyskinesia (total dyskinesia-like symptom score in 100 to 180 minutes, solvent minus tandospirone group) (PD-LID rat model [4]; oral 20 mg/kg as free form (30 mg/kg as citrate), experiment printed as (FIG. 7)): −9.1
(ii) Indicator of rebound symptom of dyskinesia (total dyskinesia-like symptom score in 100 to 180 minutes, solvent minus tandospirone group) (PD-LID rat model [4]; oral 20 mg/kg as free form (30 mg/kg as citrate), experiment printed as (FIGS. 8A-8B)): −8.5
(i) Degree of improvement in indicator of dyskinesia symptom (total AIMs score in 3 hours, solvent minus tandospirone group) (PD-LID rat model [4]; [7]): Ineffective
(ii) Indicator of rebound symptom of dyskinesia (total dyskinesia-like symptom score in 100 to 180 minutes, solvent minus tandospirone group) (PD-LID rat model [4]; [7]): −10.1
(i) Degree of improvement in indicator of dyskinesia symptom (total AIMs score in 3 hours, placebo minus tandospirone group) (PD-LID rat model [4]; [8]): 17.7
(ii) Indicator of rebound symptom of dyskinesia (total dyskinesia-like symptom score in 100 to 180 minutes, placebo minus tandospirone group) (PD-LID rat model [4]; [8]): No effect
(i) Degree of improvement in indicator of dyskinesia symptom (total AIMs score in 3 hours, placebo minus tandospirone group) (PD-LID rat model [4]; [9]): 27.1
(ii) Indicator of rebound symptom of dyskinesia (total dyskinesia-like symptom score in 100 to 180 minutes, placebo minus tandospirone group) (PD-LID rat model [4]; [9]): No effect

c1cnc(N2CCNCC2)nc1 [1-PP dihydrochloride, 1-(2-Pyrimidyl)piperazine]
total dyskinesia-like symptom (AIMs) score in 3 hours (PD-LID rat model [2]; subcutaneous 10 mg/kg): significant change in the total AIMs score was not found
total dyskinesia-like symptom (AIMs) score in 3 hours (PD-LID rat model [2]; subcutaneous 30 mg/kg): significant change in the total AIMs score was not found
total dyskinesia-like symptom score in 100 to 180 minutes (PD-LID rat model [4]; subcutaneous 10 or 30 mg/kg, vs solvent group): increasing trend in the total AIMs score, albeit not significant
